Test results from patent US12528790B2, “Amide derivative having antiviral activity” (Shionogi & Co., Ltd., priority 2020, dated 2026).
Like-named read-outs stand apart in the source and are kept apart here.

What was measured:
RSV A2 strain = test: In vitro CPE (CytoPathic Effect) inhibition effect evaluation test, RSV type A; assay type: cell-based
Method in brief: (§1)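 HEp-2 cells (2.4×10^5 cells/mL, 2% FBS E-MEM) were infected with RSV alongside 3-fold compound dilutions and incubated at 37 °C, 4 days for A2 and 5 days for B Wash/18537. Viable cells quantified by CellTiter-Glo 2.0 luminescence; EC50 by nonlinear regression as 50% CPE inhibition.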

[1] = test system: RSV B (Wash/18537 strain); test: In vitro CPE (CytoPathic Effect) inhibition effect evaluation test, RSV type B; assay type: cell-based
Method in brief: as §1

[2] = human respiratory syncytial virus, inhibitory effect against RSV type A (RSV A2 strain), HEp-2 cells, CPE inhibition, read-out: EC50
[3] = human respiratory syncytial virus, inhibitory effect against RSV type B, CPE inhibition, read-out: EC50
[4] = inhibitory effect against RSV type A (RSV A2 strain), HEp-2 cells, CPE inhibition, read-out: EC50
[5] = inhibitory effect against RSV type B, CPE inhibition, read-out: EC50
[6] = human respiratory syncytial virus, HEp-2, 96 h, read-out: EC50, inhibitory effect against RSV type A (CPE inhibition)
[7] = human respiratory syncytial virus, HEp-2, 120 h, HEp-2 cells, RSV B (Wash/18537 strain), 5 days, CellTiter-Glo, read-out: EC50, inhibitory effect against RSV type B (CPE inhibition)

| Compound | EC50 (RSV A2 strain; [2]) [nM] | EC50 [1, 3] [nM] | further results |
| --- | --- | --- | --- |
| N#CCN1CCC(Oc2ccc3c(c2)C2(CCCCC2)CN3c2ncc(C(=O)NC3(C(=O)O)C4CC5CC(C4)CC3C5)c(C(F)(F)F)n2)CC1 (stereo not drawn) [Compound I-521] | < 10 | 10 to 100 | – |
| O=C(NC1(C(=O)O)C2CC3CC(C2)CC1C3)c1cnc(N2CC3(CCCCC3)c3cc(OC4CCN(CC(F)F)CC4)ccc32)nc1C(F)(F)F (stereo not drawn) [Compound I-482] | < 10 | 10 to 100 | – |
| CC(F)(F)c1nc(N2CC3(CCCCC3)c3cc(OC4CCN(c5ncc(F)cn5)CC4)ccc32)ncc1C(=O)NC1(C(=O)O)C2CC3CC(C2)CC1C3 (stereo not drawn) [Compound I-396] | < 10 | < 10 | – |
| CN(C)CCCc1nc(N2CC3(CCOCC3)c3cc(OC4CCN(c5ncccn5)CC4)ccc32)nc(C(F)(F)F)c1C(=O)NC1(C(=O)O)C2CC3CC(C2)CC1C3 (stereo not drawn) [Compound I-183] | < 10 | 10 to 100 | – |
| O=C(NC1(C(=O)O)C2CC3CC(C2)CC1C3)c1cnc(-c2cn(C3CCOCC3)c3cc(O[C@H]4CC[C@@H](N5CC(F)(F)C5)CC4)ccc23)nc1C(F)(F)F (stereo partly drawn) [Compound I-614] | < 10 | < 10 | – |
| O=C(NC1(C(=O)O)C2CC3CC(C2)CC1C3)c1cnc(-c2cn(C3CCC(F)(F)CC3)c3cc(OC4CCC(OC5CC5)CC4)ccc23)nc1C(F)(F)F (single isomer, unassigned) [Compound I-480] | – | – | EC50 (RSV A2 strain; [4]): < 10 nM; EC50 [1, 5]: 10 to 100 nM |
| O=C(NC1(C(=O)O)C2CC3CC(C2)CC1C3)c1cnc(N2CC3(CCCCC3)c3cc(OC4CCC(N5CC(F)(F)C5)CC4)ccc32)nc1C(F)(F)F (stereo not drawn) [Compound I-438] | < 10 | < 10 | – |
| O=C(NC1(C(=O)O)C2CC3CC(C2)CC1C3)c1ccc(-c2cn(-c3ccccc3)c3cc(OC4CCN(c5ncccn5)CC4)ccc23)nc1C(F)(F)F (stereo not drawn) [Compound I-148] | – | – | EC50 (RSV A2 strain; [6]): 1.5 nM; EC50 [1, 7]: 2.8 nM |
| O=C(NC1(C(=O)O)C2CC3CC(C2)CC1C3)c1cnc(N2CC3(CCOCC3)c3cc(C(=O)N4CC(F)(F)C4)ccc32)nc1C(F)(F)F (stereo not drawn) [Compound I-491] | < 10 | 10 to 100 | – |
| O=C(NC1(C(=O)O)C2CC3CC(C2)CC1C3)c1ccc(-c2cn(-c3ccncc3)c3cc(OC4CCN(c5ncccn5)CC4)ccc23)nc1C(F)(F)F (stereo not drawn) [Compound I-176] | < 10 | < 10 | – |
| CC(F)(F)c1nc(N2CC3(CCOCC3)c3cc(O[C@H]4CC[C@H](N5CC(F)(F)C5)CC4)ncc32)ncc1C(=O)N[C@]1(C(=O)O)[C@@H]2CC3C[C@H]1C[C@@](F)(C3)C2 [Compound I-601] | < 10 | < 10 | – |
| O=C(NC1(C(=O)O)C2CC3CC(C2)CC1C3)c1cnc(N2CC3(CCCCC3)c3cc(OC4CCN(CC(F)(F)F)CC4)ccc32)nc1C(F)(F)F (stereo not drawn) [Compound I-382] | < 10 | 10 to 100 | – |
| O=C(NC1(C(=O)O)C2CC3CC(C2)CC1C3)c1cnc(N2CC3(CCCCC3)c3cc(OC4CCC5(CC4)COC5)ccc32)nc1C(F)(F)F (stereo not drawn) [Compound I-399] | < 10 | 10 to 100 | – |
| COc1cnc(N2CCC(Oc3ccc4c(c3)C3(CCCCC3)CN4c3ncc(C(=O)NC4(C(=O)O)C5CC6CC(C5)CC4C6)c(C(F)(F)F)n3)CC2)cn1 (stereo not drawn) [Compound I-537] | < 10 | 10 to 100 | – |
| O=C(NC1(C(=O)O)C2CC3CC(C2)CC1C3)c1cnc(-c2cn(C3CC4(CC4)C3)c3cc(O[C@H]4CC[C@H](N5CC(F)(F)C5)CC4)ccc23)nc1C(F)(F)F (stereo partly drawn) [Compound I-531] | < 10 | < 10 | – |
| CC(F)(F)c1nc(N2CC3(CCOCC3)c3cc(OC4CCN(CC(F)(F)F)CC4)ncc32)ncc1C(=O)NC1(C(=O)O)C2CC3CC(C2)CC1C3 (stereo not drawn) [Compound I-526] | < 10 | < 10 | – |
| CC(F)(F)c1nc(N2CC3(CCCCC3)c3cc(OC4CCC(N5CCC(F)(F)C5)CC4)ccc32)ncc1C(=O)NC1(C(=O)O)C2CC3CC(C2)CC1C3 (stereo not drawn) [Compound I-539] | – | – | EC50 (RSV A2 strain; [4]): < 10 nM; EC50 [1, 5]: 10 to 100 nM |
| COC[C@@H](C)n1cc(-c2ncc(C(=O)NC3(C(=O)O)C4CC5CC(C4)CC3C5)c(C(C)(F)F)n2)c2ccc(OC3CC(N4CC(F)(F)C4)C3)cc21 (stereo partly drawn) [Compound I-620] | < 10 | < 10 | – |
| CC(F)(F)c1nc(N2CC3(CCCCC3)c3cc(-n4ncc5c4CCN(CC(F)(F)F)C5)ccc32)ncc1C(=O)NC1(C(=O)O)C2CC3CC(C2)CC1C3 (stereo not drawn) [Compound I-607] | < 10 | < 10 | – |
| O=C(NC1(C(=O)O)C2CC3CC(C2)CC1C3)c1ccc(-c2nn(C3CCOCC3)c3cc(OC4CCN(c5ncccn5)CC4)ccc23)nc1C(F)(F)F (stereo not drawn) [Compound I-158] | < 10 | < 10 | – |
| Cn1cc2c(n1)CCC(Oc1ccc3c(c1)C1(CCOCC1)CN3c1ncc(C(=O)NC3(C(=O)O)C4CC5CC(C4)CC3C5)c(C(F)(F)F)n1)C2 (racemic) [Compound I-189] | < 10 | < 10 | – |
| CC(F)(F)c1nc(N2CC3(CCCCC3)c3cc(O[C@H]4CC[C@H](N5CC(F)(F)C5)CC4)ncc32)ncc1C(=O)N[C@]1(C(=O)O)[C@@H]2CC3C[C@H]1C[C@@](F)(C3)C2 [Compound I-556] | < 10 | 10 to 100 | – |
| CC(F)(F)CN1CCC(Oc2ccc3c(-c4ncc(C(=O)NC5(C(=O)O)C6CC7CC(C6)CC5C7)c(C(F)(F)F)n4)cn(C4CCC(F)(F)CC4)c3c2)CC1 (stereo not drawn) [Compound I-422] | < 10 | < 10 | – |
| O=C(NC1(C(=O)O)C2CC3CC(C2)CC1C3)c1cnc(-c2cn(C3CCC(F)(F)CC3)c3cc(OC4CCN(c5ncccn5)CC4)ccc23)nc1C(F)(F)F (stereo not drawn) [Compound I-239] | < 10 | < 10 | – |
| CC(F)(F)c1nc(N2CC3(CCOCC3)c3cc(O[C@@H]4CCN(c5ncc(F)cn5)C4)ccc32)ncc1C(=O)NC1(C(=O)O)C2CC3CC(C2)CC1C3 (stereo partly drawn) [Compound I-560] | < 10 | < 10 | – |
| COC[C@H](C)n1cc(-c2ncc(C(=O)NC3(C(=O)O)C4CC5CC(C4)CC3C5)c(C(C)(F)F)n2)c2ccc(O[C@H]3CC[C@H](N4CC(F)(F)C4)CC3)cc21 (stereo partly drawn) [Compound I-567] | < 10 | < 10 | – |
| CN(C)CCCc1nc(N2CCc3cc(OCCC4CCOCC4)ccc32)nc(C(F)(F)F)c1C(=O)NC1(C(=O)O)C2CC3CC(C2)CC1C3 (stereo not drawn) [Compound I-160] | 10 to 100 | 100 to 5000 | – |
| O=C(N[C@]1(C(=O)O)[C@@H]2CC3C[C@H]1C[C@@](F)(C3)C2)c1cnc(N2CC3(CCOCC3)c3cc(OC4CCN(c5ncccn5)CC4)ccc32)nc1C(F)(F)F [Compound I-165] | – | – | EC50 (RSV A2 strain; [6]): 0.37 nM; EC50 [1, 7]: 0.62 nM |
| O=C(NC1(C(=O)O)C2CC3CC(C2)CC1C3)c1cnc(N2CC3(CCOC3)c3cc(OC4CCN(CC(F)(F)F)CC4)ccc32)nc1C(F)(F)F (racemic) [Compound I-467] | < 10 | < 10 | – |
| O=C(NC1(C(=O)O)C2CC3CC(C2)CC1C3)c1cnc(-c2cn(C3CCC(F)(F)CC3)c3cc(OC4CCC5(CC4)COC5)ccc23)nc1C(F)(F)F (stereo not drawn) [Compound I-256] | < 10 | < 10 | – |
